Experimental data published in patent US9115153B2, “Aza metal complexes” (Canon Kabushiki Kaisha, priority 2007, dated 2015).

Legend:
[1] = T1 relaxation time measurement by 500 MHz NMR in FBS solution; type: physicochemical; conditions: FBS 80%, heavy water 10%, H2O 10%; otherwise as Example 4 / Comparative Example 1 (500 MHz NMR)
Procedure: The T1 time was measured in the same manner as in Example 4 except that the NMR measurement sample was changed to an FBS (fetal bovine serum) solution of the complex (R)-11 (FBS concentration: 80%, heavy water concentration: 10%, H2O concentration: 10%).
The T1 time was measured in the same manner as in Comparative Example 1 except that the NMR measurement sample was changed to an FBS (fetal bovine serum) solution of GdCl3 or Gd (DTPA) (FBS concentration: 80%, heavy water concentration: 10%, H2O concentration: 10%).

[2] = T1 relaxation time measurement by 7T MRI (inversion recovery FISP); type: physicochemical; conditions: 1.3 mM in ultrapure water, 24° C.
Procedure: The T1 relaxation time measurement by MRI was performed using a 7T MRI apparatus (BioSpec 70/20 manufactured Bruker Biospin K.K.). The T1 relaxation time was measured under the measurement conditions of TR/TE 3/1.5 ms, FOV=8*4 cm, matrix=128*128, NA=2 and a temperature of 24° C. using an inversion recovery FISP method. Aqueous solutions of six different concentrations (1.3 mM, 0.65 mM, 0.325 mM, 0.13 mM, 0.026 mM and 0.013 mM) were prepared by dissolving complex (R)-11 in ultrapure water, and each of the aqueous solutions was placed into an Eppendorf tube and used directly as a measurement sample.
The T1 relaxation time was measured in the same manner as in Example 5. A GdCl3 aqueous solution was prepared by dissolving commercially available GdCl3.6H2O in ultrapure water so that the concentration was adjusted to 1.3 mM, and Gd (DTPA) aqueous solutions were prepared by diluting a commercially available Gd (DTPA) aqueous solution (630 mM) with ultrapure water so that the concentration was adjusted to 2.0, 1.3, 1.0, 0.5 and 0.25 mM, respectively. Each of the aqueous solutions was placed into an Eppendorf tube and used directly as a measurement sample.

[3] = T1 relaxation time measurement by 500 MHz NMR (aqueous solution); type: physicochemical; conditions: 0.13 mM aqueous solution, 10% heavy water, 27° C., inversion recovery
Procedure: The T1 relaxation time measurement was performed using a broadband probe on a 500 MHz NMR apparatus (Avance 500 manufactured by Bruker Biospin K.K.). The T1 relaxation times were measured at 27° C. using an inversion recovery method.
First, a Gd triamine 2nd G-12-ol-dendrimer complex (R)-11 was dissolved in 1 ml of ultrapure water to prepare an aqueous solution in which the concentration of complex (R)-11 was 24.05 mM. In addition, the concentration of complex (R)-11 was determined from the Gd concentration by inductive coupled plasma emission spectrometry (ICP emission spectrometry). Next, the aqueous solution was diluted with ultrapure water and heavy water so that the concentration of complex (R)-11 was 0.13 mM and the concentration of heavy water was 10%, and the resulting aqueous solution was used as an NMR measurement sample. […] The data shown in FIG. 1 clarified that the T1 time of water of the complex (R)-11 aqueous solution was 429 ms.
The T1 relaxation time was measured in the same manner as in Example 4. […] The T1 relaxation time of water for the Gd (DTPA) aqueous solution sample determined from the data shown in FIG. 2 was 1333 ms, which is considerably longer than the T1 relaxation time of complex (R)-11.

[4] = XAFS measurement and analysis (coordination number); type: physicochemical; conditions: for comparison
Procedure: The XAFS analysis of the complex (R)-11 was performed at Spring-8.
Specifically, the number of the coordinated water molecules was estimated by removing background from XAFS spectra and performing fitting using Fourier transformation or Fourier inverse transformation.
Further, the XAFS spectra were obtained by a transmission method using an ion chamber for a pellet (in a powder state) of the complex ((R)-11) and a fluorescence method using a multi-element semiconductor detector for an aqueous solution of the complex ((R)-11), respectively.
When fitting was performed without fixing the proximal coordination number to 9, the following results were obtained. In a powder state, the coordination number of O was 6.99 and the distance between atoms of Gd and O was 2.421 Å, and in an aqueous solution (3 mM) the coordination number of O was 9.77 and the distance between atoms of Gd and O was 2.430 Å.

[5] = aqueous solutions of 2.0, 1.0, 0.5 and 0.25 mM, saturation recovery spin echo, 24° C.

coordination number of water molecule [4]	T1 relaxation ability r1 [5] [L/mmol/s]	SMILES	T1 time of water for FBS solution [1] [ms]	T1 [2] [ms]	T1 relaxation time of water [3] [ms]
–	–	[Cl][Gd]([Cl])[Cl] [GdCl3]	1708	58.991	712
1	–	O=C([O-])CN1CCN(CC(=O)[O-])CCN(CC(=O)O)CCN(CC(=O)[O-])CC1.[Gd+3] [Gd (DOTA), reference compound]	–	–	–
1	4.661	O=C([O-])CN(CCN(CC(=O)[O-])CC(=O)O)CCN(CC(=O)[O-])CC(=O)O.[Gd+3] [Gd (DTPA)]	1429	205.653	1333
